This note sets out measurements from patent publication US20250032580A1, “USE OF ADNF POLYPEPTIDES IN THERAPY” (RAMOT AT TEL-AVIV UNIVERSITY LTD., priority 2021, published 2025).

The test deals with Tyr mice. Description: Developmental milestone assessment of Tyr mouse pups. The class given is in vivo. More on the design: key to NAP efficacy: global developmental delays: corrections by NAP treatment (+). On the procedure:
Animals—Animals were housed under a 12-hour light/dark cycle, with food and water ad-libitum. Mouse pups were subcutaneously administrated with NAP [having an amino acid sequence NAPVSIPQ (SEQ ID NO: 2), 25 μg NAP/1 ml saline] as described (8, 12). At 21 days of age mice were administered daily intranasal NAP in vehicle solution (“DD”—7.5 mg/ml of NaCl, 1.7 mg/ml of citric acid, 3 mg/ml of disodium phosphate dihydrate, and 0.2 mg/ml of 50% benzalkonium chloride solution) (0.5 μg NAP/5p1 DD) (8, 9, 12, and U.S. Pat. No. 10,912,819 to Gozes). These mice continued to behavioral analysis as described hereinbelow. The noninvasive intranasal route was chosen as these experiments required daily handling and administration. Age (weeks) of mice during behavioral experiments (mean±SEM) was as follows: Catwalk-9.23±0.15, grooming-10±0.15, social approach-10.5±0.12, odor-discrimination-12.12±0.13, hanging-wire-13±0.14, hotplate-13.18±0.13. Group size was determined following previous experiments (12). Pups were randomly allocated to either the NAP or DD group according to sex and genotype. All procedures involving animals were conducted under the supervision and approval of the institutional animal care and use committee of Tel Aviv University and the Israeli Ministry of Health.
Developmental milestone assessment and fostering—This experiment included animals from 16 litters in 2 experimental batches. It was performed as previously described (12) with slight modifications. Experimenters were blinded to sex and genotype during experimental procedures. Sexes were grouped if no statistically significant sex differences were discovered.
Developmental milestone assessment: At p1 Tyr pups were tattooed and genotyped for the presence of the Tyr718 mutation and SRY as described above. The same day pups were randomized to either NAP or Saline treatment groups according to genotype and sex results and developmental milestone assessment was performed from p1 to p21. As animal randomization ended up with unequal male/female ratios for certain groups and no statistical differences were found between the sexes in any of the 4 treatment groups (T test), the sexes could not be separated, [That is except for eye opening, where a significant difference was observed between the sexes in the Tyr group (P=0.047, no significance in the other three treatment groups)]. Pup paws were tattooed using a 31-gauge needle and tattoo ink (Ketchum Manufacturing Co., catalog 329AA) for identification on P1 and, until P21, underwent daily measurements for length and weight and observation for eye opening. Pups were injected daily with NAP, 1 hour prior to the tests as previously described^1.
Briefly, for ear twitch reflex, a cotton tip was gently brushed against the tip of the ear three times, between postnatal days 7-15 or until the pup responded correctly for two consecutive days. For air righting reflex, the pup was held up-side down and released ˜10.5 cm above the cage, containing 5 cm of shavings. The test was performed between postnatal days 8-21 or until the pup landed on the shavings with all four paws, for two consecutive days. For surface righting reflex, pups were placed on their backs on a level surface, the test was performed between postnatal days 1-13 until the pups was able to right itself with all four paws on the surface in under a second for two consecutive days. For eye opening, mice were observed daily until both eyes were open (eyelids separated completely). For auditory startle, the pup was placed on a level surface and the experimenter clapped loudly twice until a visible startle response was evident for 2 consecutive days. The test was performed between days 7-18. For cliff aversion, pups were placed on the edge of a small box (approx. 4 cm in height) with both paws protruding over the edge of the box. Pups were allowed 30 sec to avoid the cliff and move themselves backwards. […]

With `CC[C@H](C)[C@H](NC(=O)[C@H](CO)NC(=O)[C@@H](NC(=O)[C@@H]1CCCN1C(=O)[C@H](C)NC(=O)[C@@H](N)CC(N)=O)C(C)C)C(=O)N1CCC[C@H]1C(=O)N[C@@H](CCC(N)=O)C(=O)O` [NAP, NAPVSIPQ], for the setting “Tyr mice, data not shown”, the Rooting reflex result was “induced rooting”. Further, the “NAP efficacy: global developmental delays” value (Tyr mouse, first symbol of cell) is reported as “+/+”. Further, the “Surface-righting, first day of acquisition” value (Tyr pups, daily s.c. NAP, WT 8.69±0.42, Tyr 10.14±0.36, mean±SEM) is 8.81±0.33. Moreover, the “Air-righting, first day of acquisition” value (Tyr pups, daily s.c. NAP, WT 12.96±0.28, Tyr 15.29±0.15, mean±SEM) came out at 14.63±0.38. Moreover, the Body weight entry was “no effect” (WT female mice, data not shown); “beneficial effect was visible from P10 and reached significance at P20-21” (female Tyr pups, P1-P21). Moreover, the Eye opening result is given as “no NAP effect” (WT females, data not shown) and “No genotype/NAP effect” (males, data not shown). Moreover, where the note is “WT littermates, data not shown”, the “Developmental milestones in WT littermates” value is “no effect on WT littermates except for the cliff aversion response”. Also, the “Eye opening (day)” value (female Tyr pups, Tyr 16±0.37, WT 14.93±0.43) came to 14.78±0.46.
